From patent US7250410B2, “Cyclic nucleotide phosphodiesterase inhibitors, preparation and uses thereof” (Via Pharmaceuticals, Inc., priority 2001, dated 2007)

Assays:
[1] = system: PDE1; test: Selectivity: inhibition of PDE1, radioenzymatic phosphodiesterase assay; type: biochemical, bovine; set-up: PDE1 percentage inhibition at 10 μM: unit: %; conditions: Table 4 Selectivity; compound at 10 μM
Protocol: (§1) A 3 g segment of bovine aortic media cut into pieces with scissors was homogenized with an ultra-turrax then a potter glass/glass homogenizer in 7 volumes by weight of buffer A containing a protease inhibitor cocktail (20 mM Tris-HCl, 0.25 M saccharose, 2 mM magnesium acetate, 1 mM dithiothreitol, 5 mM EGTA, 2000 U/ml aprotinin, 10 mg/l leupeptin and 10 mg/l soya trypsic inhibitor). The homogenizate was centrifuged at 105,000 g for 1 hour. The supernatant was loaded on a DEAE-Sephacel column (15×1.6 cm) pre-equilibrated with buffer B (buffer A without the saccharose, EGTA and protease inhibitors). The column was washed until there was no detectable absorption at 280 nm, then eluted with a linear gradient of NaCl (0–0.5 M) in buffer B. 3-ml fractions were collected and enzyme activity was determined under the conditions described hereinafter to localize the different enzymes PDE1, PDE3, PDE4 and PDE5, which were aliquoted and frozen at −80° C. (Lugnier et al., Biochem. Phamacol., 35 (1986) 1746–1751). PDE2 was prepared from bovine endothelial cells by the same methods (Lugnier and Schini, Biochem. Pharmacol. 1990, 39; 75–84).
(§2) Cyclic nucleotide phosphodiesterase activity was determined by a radioenzymatic method using tritium-labelled cyclic GMP or AMP (1 μM) as substrate (Lugnier et al., 1986). ^3H-labelled adenosine or guanosine monophosphate formed by hydrolysis of the radiolabelled cyclic nucleotide was then converted to ^3H-labelled adenosine or guanosine in a second reaction with […] in excess. The nucleoside formed was separated from the nucleotides by anion exchange chromatography. Nucleoside radioactivity was determined by liquid scintillation counting. Enzymatic incubations were carried out under conditions allowing no more than 15% hydrolysis of the substrate; each point was performed in duplicate.
(§3) The activity of the compounds was evaluated on other phosphodiesterase isoforms, particularly basal state or calmodulin-activated PDE1 from vascular smooth muscle, basal state or cyclic GMP-activated PDE2 from vascular endothelial cells, PDE3 and PDE5 from vascular smooth muscle.
(§4) The results obtained are presented in Table 4 hereinafter and are expressed as the percentage inhibition of enzymatic activity produced by […] of the tested compound.

[2] = biological target: T1, PDE2 (Bos taurus, UniProt P14099); test: Selectivity: inhibition of PDE2, radioenzymatic phosphodiesterase assay; type: biochemical, bovine; conditions: Table 4 Selectivity; compound at 10 μM; read-out: PDE2 percentage inhibition at 10 μM
T1 construct: PDE2 was prepared from bovine endothelial cells by the same methods; endogenous in cells; host or cells: bovine vascular endothelial cells, DEAE-Sephacel fraction
T1 sequence (P14099 1-921): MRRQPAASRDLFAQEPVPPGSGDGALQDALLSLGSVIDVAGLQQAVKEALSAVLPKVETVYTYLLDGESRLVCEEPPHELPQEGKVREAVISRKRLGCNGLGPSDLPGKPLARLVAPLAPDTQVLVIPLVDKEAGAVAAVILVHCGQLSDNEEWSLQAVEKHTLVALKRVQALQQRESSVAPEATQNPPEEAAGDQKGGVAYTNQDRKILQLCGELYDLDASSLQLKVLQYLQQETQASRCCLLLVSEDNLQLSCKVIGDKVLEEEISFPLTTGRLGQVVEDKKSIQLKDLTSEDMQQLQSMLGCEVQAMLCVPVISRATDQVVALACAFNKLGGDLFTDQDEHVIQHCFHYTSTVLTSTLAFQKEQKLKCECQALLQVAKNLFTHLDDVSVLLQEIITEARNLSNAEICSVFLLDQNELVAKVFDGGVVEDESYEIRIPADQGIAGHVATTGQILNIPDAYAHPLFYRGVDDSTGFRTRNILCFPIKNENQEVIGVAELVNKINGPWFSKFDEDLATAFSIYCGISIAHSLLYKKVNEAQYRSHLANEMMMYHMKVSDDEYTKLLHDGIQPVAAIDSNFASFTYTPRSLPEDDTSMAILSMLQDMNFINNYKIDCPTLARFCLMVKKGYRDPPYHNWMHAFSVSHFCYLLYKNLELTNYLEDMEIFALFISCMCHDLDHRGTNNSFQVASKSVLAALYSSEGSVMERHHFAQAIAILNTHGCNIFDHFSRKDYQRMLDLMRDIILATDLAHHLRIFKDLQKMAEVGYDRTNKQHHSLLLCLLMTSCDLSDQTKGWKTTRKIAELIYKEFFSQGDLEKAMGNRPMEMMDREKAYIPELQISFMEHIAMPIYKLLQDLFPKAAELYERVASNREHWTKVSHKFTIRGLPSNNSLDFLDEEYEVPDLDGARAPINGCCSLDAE
Protocol: as §1, §2, §3, §4

[3] = system: IL1β, IL6 and IL8; test: IL1β, IL6 and IL8 secretion by LPS-activated mononuclear cells from venous blood; type: cell-based, human
[4] = system: TNFα; test: TNFα production by LPS-activated mononuclear cells from venous blood (ELISA); type: cell-based; conditions: Homo sapiens
Protocol: Compounds according to the invention were assessed for anti-inflammatory properties on mononuclear cells from venous blood of healthy donors (n=4), by a protocol approved by the Alsace No. 1 Ethics Committee. More specifically, the cells were incubated for 24 hours in 24-well plates in the presence of the test compound, after activation by Salmonella Abortis Equi lipopolysaccharide (LPS) (5 pg/ml) (cf. De Groote et al., Cytokine 4, 1992, 239). After incubation, TNFα concentrations were determined in the culture supernatant by an ELISA method (Antibody Solutions, Half Moon Bay, Calif., USA).

SMILES	PDE1 percentage inhibition at 10 μM [1]	inhibition at 10 µM [2]	IL1β, IL6 and IL8 secretion levels ([3]; compound at 1 μM)	inhibition at 1 µM ([4]; 24 h, read-out: inhibition of TNFα production)	inhibition of the secretion of IL1β ([3]; in words)	IC50 ([4]; read-out: anti-TNFα activity IC50)
CCOc1cc2c(cc1OC)C(c1ccccc1)=NCC(=O)N2C [IIda, 8-ethoxy-7-methoxy-1-methyl-5-phenyl-1,3-dihydro-2H-1,4-benzodiazepin-2-one]	26%	7%	not at all altered	100%		
CCOc1cc2c(cc1OCC)C(c1ccccc1)=NCC(=O)N2 [XXIIag, 7,8-diethoxy-5-phenyl-1,3-dihydro-2H-1,4-benzodiazepin-2-one]	46%	17%			capable of inhibiting the secretion	0.1 to 1 µM
